Experiments:
[1] = tested on: MiaPaca2 human pancreatic carcinoma xenografts; assay: Antitumor efficacy in MiaPaca2 pancreatic xenografts in nude mice; type: in vivo; settings: 60 mg/kg ip q3d, day 37
Description: Female (athymic nu/nu) nude mice were obtained from Charles River Laboratories (Wilmington, Mass.), while female SCID-beige mice were purchased from Taconic (Germantown, N.Y.). Mice were used when they were approximately 8-12 weeks old (nudes) or 8-10 weeks old (SCID-beige), and weighed approximately 23-25 grams. The health of all animals was determined daily by gross observation of experimental animals and by the analyses of blood samples of sentinel animals that were housed on the shared shelf racks. All animals were allowed to acclimate and recover from any shipping related stress for a minimum of 72 hours prior to experimental use. Autoclaved water and irradiated food [5058-ms Pico chow (mouse) Purina, Richmond, Ind.] were provided ad libitum, and the animals were maintained on a 12 hour light and dark cycle. Cages, bedding and water bottles were autoclaved before use and were changed weekly. MiaPaca2, AsPC1 and BxPC3 human pancreatic carcinoma cells were purchased from ATCC (Manassas, Va.). BxPC3 and AsPC1 cells were grown in RPMI medium and MiaPaca2 cells were grown in Dulbecco's Modified Essential Medium (DMEM). All culture media were supplemented with 10% (v/v) FBS and 1% (v/v) […]. […] SCID-biege mice were implanted se with 5×10^6 BxPC3 cells in a 1:1 mixture of matrigel:PBS in a volume of 0.2 ml per mouse in the right hind flank on May 22, 2007. […] Formulated compound and vehicle were stored at 4° C. and prepared weekly. The suspension was mixed vigorously prior to administration. Gemcitabine (Gemzar®, Eli Lilly and Company, Indianapolis, Ind., USA) was reconstituted with sterile saline to yield a stock solution of 38 mg/ml for the entire 3-4 week study. […] Nude mice implanted with MiaPaca2 or AsPC1 xenografts were randomized on day 17 and day 9 post cell implant, respectively. SCID-beige mice bearing BxPC3 xenografts were randomized 8 days post implant. […] Treatment for the MiaPaca2 study began on Feb. […] For the MiaPaca2 and AsPC1 studies, qd Compound (1) suspension or q3d gemcitabine treatment ended on day 37 post tumor cell implant, whereas for the BxPC3 study, qd Compound (1) suspension or q3d gemcitabine treatment ended on day 35 post tumor cell implant. For intermittent dosing of Compound (1) suspension in the MiaPaca2 study using the 7+/7−/7+ schedule, treatment ended on day 23, was reinitiated on day 31, and ended day 37. In the combination groups Compound (1) suspension was given sequentially with gemcitabine using the 7+/7−/7+ schedule so that Compound (1) was dosed daily only during the first and third weeks, whereas gemcitabine was dosed q3d during the second week only. Efficacy data was graphically represented as the mean tumor volume+standard error of the mean (SEM). Tumor volumes of treated groups were presented as percentages of tumor volumes of the control groups (% T/C), using the formula: 100×((T−T0)/(C−C0)), where T represented mean tumor volume of a treated group on a specific day during the experiment, T0 represented mean tumor volume of the same […] on the first day of treatment; C represented mean tumor volume of a control group on the specific day during the experiment, and C0 represented mean tumor volume of the same treated group on the first day of treatment. Tumor volume (in cubic millimeters) was calculated using the ellipsoid formula: (D×(d2))/2 where ‘D’ represents the large diameter of the tumor, and ‘d’ represents the small diameter. In some cases, tumor regression and/or percent change in tumor volume was calculated using the formula: ((T−T0)/T0)×100 where ‘T’ represents mean tumor volume of the treated group at a particular day, and ‘T0’ represents mean tumor volume of the same treated group at initiation of treatment. Statistical analysis was determined by the rank sum test and One Way Anova and a post-hoc Bonferroni t-test (SigmaStat, version 2.0, Jandel Scientific, San Francisco, Calif.). […]

[2] = tested on: AsPC1 human pancreatic carcinoma xenografts; assay: Antitumor efficacy in AsPC1 pancreatic xenografts in nude mice; type: in vivo; settings: 90 mg/kg ip q3d
Description: Female (athymic nu/nu) nude mice were obtained from Charles River Laboratories (Wilmington, Mass.), while female SCID-beige mice were purchased from Taconic (Germantown, N.Y.). Mice were used when they were approximately 8-12 weeks old (nudes) or 8-10 weeks old (SCID-beige), and weighed approximately 23-25 grams. The health of all animals was determined daily by gross observation of experimental animals and by the analyses of blood samples of sentinel animals that were housed on the shared shelf racks. All animals were allowed to acclimate and recover from any shipping related stress for a minimum of 72 hours prior to experimental use. Autoclaved water and irradiated food [5058-ms Pico chow (mouse) Purina, Richmond, Ind.] were provided ad libitum, and the animals were maintained on a 12 hour light and dark cycle. Cages, bedding and water bottles were autoclaved before use and were changed weekly. MiaPaca2, AsPC1 and BxPC3 human pancreatic carcinoma cells were purchased from ATCC (Manassas, Va.). BxPC3 and AsPC1 cells were grown in RPMI medium and MiaPaca2 cells were grown in Dulbecco's Modified Essential Medium (DMEM). All culture media were supplemented with 10% (v/v) FBS and 1% (v/v) […]. […] SCID-biege mice were implanted se with 5×10^6 BxPC3 cells in a 1:1 mixture of matrigel:PBS in a volume of 0.2 ml per mouse in the right hind flank on May 22, 2007. […] Formulated compound and vehicle were stored at 4° C. and prepared weekly. The suspension was mixed vigorously prior to administration. Gemcitabine (Gemzar®, Eli Lilly and Company, Indianapolis, Ind., USA) was reconstituted with sterile saline to yield a stock solution of 38 mg/ml for the entire 3-4 week study. […] Nude mice implanted with MiaPaca2 or AsPC1 xenografts were randomized on day 17 and day 9 post cell implant, respectively. SCID-beige mice bearing BxPC3 xenografts were randomized 8 days post implant. […] Treatment for the MiaPaca2 study began on Feb. […] For the MiaPaca2 and AsPC1 studies, qd Compound (1) suspension or q3d gemcitabine treatment ended on day 37 post tumor cell implant, whereas for the BxPC3 study, qd Compound (1) suspension or q3d gemcitabine treatment ended on day 35 post tumor cell implant. For intermittent dosing of Compound (1) suspension in the AsPC1 study using the 7+/7− schedule×2 cycles, treatment ended on day 15, was reinitiated on day 23, and finally ended day 29. For intermittent dosing using the 3+/4− schedule×4 cycles, treatment ended on day 11, was reinitiated on day 16, ended day 18, was reinitiated on day 23, ended day 25, was reinitiated day 30, and finally ended on day 32. In the first combination group, daily Compound (1) was given simultaneously with q3d gemcitabine for a total of four weeks. For the remaining combination groups, Compound (1) and gemcitabine were given sequentially rather than simultaneously. In group 8 gemcitabine was dosed q3d during the 1st and 3rd weeks, whereas Compound (1) was given daily during the 2nd and 4th weeks only. In group 9, the order of compound dosing was reversed, with Compound (1) suspension given daily during the 1st and 3rd weeks, whereas gemcitabine was given q3d during the 2nd and 4th weeks. In group 10, gemcitabine was dosed q3d during the 1st and 2nd weeks, whereas Compound (1) was given daily during the 3rd and 4th weeks. In group 11, the order of compound dosing was reversed, with Compound (1) given daily during the 1st and 2nd weeks, and gemcitabine dosed q3d for the 3rd and 4th weeks. […]

**Q.** Which results are given for `Nc1ccn([C@@H]2O[C@H](CO)[C@@H](O)C2(F)F)c(=O)n1` [gemcitabine, Gemcitabine, reference compound]?
**A.** % TGI [1]: 62%; % TGI [2]: 39%

From US8741889B2, “Method of treating non-small cell lung cancer and colon cancer with gamma-secretase inhibitor” (Hoffmann-La Roche Inc, priority 2008, dated 2014)
